Results from patent US20250195521A1 (Revolution Medicines, Inc., priority 2020, published 2025).
Several values for one entry are separate records, joined by “and”; a condition that tells them apart may be missing. Identical values can stand only once. Like-named read-outs stand apart in the source and are kept apart here.

What was measured:
[1] = system: NCI-H358 (K-Ras G12C); experiment: CellTiter-Glo cell viability assay, NCI-H358; type: cell-based, human; settings: Homo sapiens, NCI-H358, 120 h, 5-day treatment; read-out: H358 Cell Viability assay data (K-Ras G12C, IC50)
Procedure, shortened: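 NCI-H358 cells were treated with test compounds dispensed directly into the assay wells and incubated until day 5. Viability was then read by CellTiter-Glo luminescence after a ~30 min room-temperature equilibration, normalized to the DMSO average (×100), and fit with a four-parameter logistic curve.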

[2] = system: Capan-1 cells (K-Ras G12V); experiment: CellTiter-Glo cell viability, Capan-1; type: cell-based, human; settings: Homo sapiens, CAPAN-1, 120 h, K-Ras G12V, 5-day treatment; read-out: Capan-1 Cell Viability IC50
Procedure, shortened: (§1)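 Compounds were dispensed directly onto seeded cells and incubated until day 5, then plates were equilibrated at room temperature for about 30 min before CellTiter-Glo luminescence readout. Signals were normalized as (sample/average DMSO)×100 and fitted with a four-parameter logistic model.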

[3] = molecular target: KRAS G12C (Homo sapiens (Human), UniProt P01116+P62937, G12C); experiment: Ras-Raf disruption/FRET/MOA assay (BRAF RBD, Cyclophilin A); type: biochemical; settings: read-out: KRAS G12C FRET IC50
Procedure, shortened: (§2)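 Measured: compound-facilitated Cyclophilin A:Ras complex blocking RAF RBD binding. Conditions: 12.5 nM Ras-GMPPNP, 50 nM BRAF RBD, 25 μM CypA, 3 h plus 1.5 h detection. Output: IC50 from TR-FRET ratio.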

[4] = molecular target: K-Ras G12C(GMP-PNP) binding to BRAF RBD (Homo sapiens (Human), UniProt P01116+P62937, G12C); experiment: Disruption of BRAF RBD interaction with K-Ras (FRET / MOA assay), K-Ras G12C; type: biochemical
Source text: Note—The following protocol describes a procedure for monitoring disruption of K-Ras G12C(GMP-PNP) binding to BRAF^RBD by a compound of the invention. This protocol may also be executed substituting other Ras proteins or nucleotides.
The purpose of this biochemical assay was to measure the ability of test compounds to facilitate ternary complex formation between a nucleotide-loaded K-Ras isoform and Cyclophilin A; the resulting ternary complex disrupts binding to a BRAF^RBD construct, inhibiting K-Ras signaling through a RAF effector. Data is reported as IC50 values.
Compound was present in plate wells as a 10-point 3-fold dilution series starting at a final concentration of 30 μM. After incubation at 25° C. for 3 hours, a mixture of Anti-His Eu—W1024 and anti-GST allophycocyanin was then added to assay sample wells at final concentrations of 10 nM and 50 nM, respectively, and the reaction incubated for an additional 1.5 hours. […] Compounds that facilitate disruption of a K-Ras: RAF complex were identified as those eliciting a decrease in the TR-FRET ratio relative to DMSO control wells.

[5] = system: K-Ras G12C (NCI-H358 cells); experiment: Potency assay: pERK in NCI-H358 cells; type: cell-based, human; settings: Homo sapiens; NCI-H358 cells, 4 hours; read-out: pERK EC50 (H358 KRAS G12C)
Procedure, shortened: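 Cells plated the day before were exposed for 4 h at 37° C, 5% CO2 to a 10-point, 3-fold DMSO dilution series (10 mM top stock), in duplicate. Phospho-ERK was read by AlphaLISA SureFire Ultra or by In-Cell Western with DRAQ5 DNA stain, and IC50 came from a 4-parameter sigmoidal fit.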

[6] = molecular target: KRAS WT (Homo sapiens (Human), UniProt P01116+P62937); experiment: Ras-Raf disruption/FRET/MOA assay (BRAF RBD, Cyclophilin A); type: biochemical; settings: read-out: KRAS WT FRET data IC50
Procedure, shortened: as §2

[7] = molecular target: KRAS G12D (Homo sapiens (Human), UniProt P01116+P62937, G12D); experiment: as above; type: biochemical; settings: read-out: KRAS G12D FRET IC50
Procedure, shortened: as §2

[8] = molecular target: KRAS G13C (Homo sapiens (Human), UniProt P01116+P62937, G13C); experiment: as above; type: biochemical; settings: read-out: KRAS G13C FRET IC50
Procedure, shortened: as §2

[9] = molecular target: KRAS G13D (Homo sapiens (Human), UniProt P01116+P62937, G13D); experiment: as above; type: biochemical; settings: read-out: KRAS G13D FRET data IC50
Procedure, shortened: as §2

[10] = molecular target: KRAS G12S (Homo sapiens (Human), UniProt P01116+P62937, G12S); experiment: as above; type: biochemical; settings: read-out: KRAS G12S FRET IC50
Procedure, shortened: as §2

[11] = molecular target: NRAS G12C (Homo sapiens (Human), UniProt P01111+P62937, G12C); experiment: as above; type: biochemical; settings: read-out: NRAS G12C FRET data IC50
Procedure, shortened: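 First, 25 μM Cyclophilin A, 12.5 nM His6-Ras-GMPPNP and 50 nM GST-BRAF RBD are mixed with diluted compound at pH 7.3. Next, 3 h at 25° C. Then 10 nM anti-His Eu-W1024 plus 50 nM anti-GST allophycocyanin for 1.5 h before TR-FRET reading.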

[12] = molecular target: KRAS G12V (Homo sapiens (Human), UniProt P01116+P62937, G12V); experiment: as above; type: biochemical; settings: read-out: KRAS G12V FRET IC50
Procedure, shortened: as §2

[13] = system: NCI-H358 cells (K-Ras G12C); experiment: CellTiter-Glo cell viability, NCI-H358; type: cell-based, human; settings: Homo sapiens, NCI-H358, 120 h, K-Ras G12C, 5-day treatment; read-out: H358 Cell Viability IC50
Procedure, shortened: as §1

Chain of KRAS G13C (P01116 other isoform, or with tags, fused parts or gaps G13C): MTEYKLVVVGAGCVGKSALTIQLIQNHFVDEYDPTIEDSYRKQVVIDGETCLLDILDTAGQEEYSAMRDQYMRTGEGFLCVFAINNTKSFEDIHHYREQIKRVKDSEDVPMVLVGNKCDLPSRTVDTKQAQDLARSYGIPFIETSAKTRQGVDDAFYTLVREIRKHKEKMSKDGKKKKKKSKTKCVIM
Chain of KRAS G13C (P62937 whole entry): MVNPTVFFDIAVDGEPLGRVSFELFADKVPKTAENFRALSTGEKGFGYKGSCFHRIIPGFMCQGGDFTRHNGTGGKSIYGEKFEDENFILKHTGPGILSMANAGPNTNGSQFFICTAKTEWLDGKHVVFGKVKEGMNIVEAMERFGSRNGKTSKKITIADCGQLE
Chain of KRAS G12S (P01116 other isoform, or with tags, fused parts or gaps G12S): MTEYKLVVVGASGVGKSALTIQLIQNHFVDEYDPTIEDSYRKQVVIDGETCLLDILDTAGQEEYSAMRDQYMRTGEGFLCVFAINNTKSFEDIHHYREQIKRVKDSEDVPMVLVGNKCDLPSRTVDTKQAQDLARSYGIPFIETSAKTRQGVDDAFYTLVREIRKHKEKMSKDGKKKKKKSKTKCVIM
Chain of KRAS G12S (P62937 whole entry): as the sequence (P62937 whole entry) above
Chain of KRAS G12C (P01116-2 other isoform, or with tags, fused parts or gaps G12C): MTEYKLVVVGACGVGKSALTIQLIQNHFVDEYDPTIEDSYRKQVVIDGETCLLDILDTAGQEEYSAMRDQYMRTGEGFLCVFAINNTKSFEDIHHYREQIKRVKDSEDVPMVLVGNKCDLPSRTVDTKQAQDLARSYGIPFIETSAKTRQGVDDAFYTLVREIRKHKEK
Chain of KRAS G12C (P62937 whole entry): as the sequence (P62937 whole entry) above
Chain of NRAS G12C (P01111 whole entry G12C): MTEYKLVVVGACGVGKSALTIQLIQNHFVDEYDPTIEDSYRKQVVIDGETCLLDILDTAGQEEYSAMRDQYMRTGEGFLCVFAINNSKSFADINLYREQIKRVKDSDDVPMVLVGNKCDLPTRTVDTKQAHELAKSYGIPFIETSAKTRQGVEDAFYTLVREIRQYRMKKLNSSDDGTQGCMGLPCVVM
Chain of NRAS G12C (P62937 whole entry): as the sequence (P62937 whole entry) above
Chain of KRAS G12D (P01116 other isoform, or with tags, fused parts or gaps G12D): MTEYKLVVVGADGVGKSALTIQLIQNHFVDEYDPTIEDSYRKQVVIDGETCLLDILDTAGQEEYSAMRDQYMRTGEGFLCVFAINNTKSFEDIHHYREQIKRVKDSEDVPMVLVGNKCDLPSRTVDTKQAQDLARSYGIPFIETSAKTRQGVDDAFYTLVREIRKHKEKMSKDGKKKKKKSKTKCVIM
Chain of KRAS G12D (P62937 whole entry): as the sequence (P62937 whole entry) above
Chain of KRAS WT (P01116 other isoform, or with tags, fused parts or gaps): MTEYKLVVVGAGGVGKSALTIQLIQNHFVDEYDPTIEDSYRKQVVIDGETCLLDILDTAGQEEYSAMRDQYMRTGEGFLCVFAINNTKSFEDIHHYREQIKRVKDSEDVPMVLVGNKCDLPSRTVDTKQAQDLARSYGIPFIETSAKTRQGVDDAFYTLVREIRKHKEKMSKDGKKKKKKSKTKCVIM
Chain of KRAS WT (P62937 whole entry): as the sequence (P62937 whole entry) above
Chain of K-Ras G12C(GMP-PNP) binding to BRAF RBD (P01116 other isoform, or with tags, fused parts or gaps G12C): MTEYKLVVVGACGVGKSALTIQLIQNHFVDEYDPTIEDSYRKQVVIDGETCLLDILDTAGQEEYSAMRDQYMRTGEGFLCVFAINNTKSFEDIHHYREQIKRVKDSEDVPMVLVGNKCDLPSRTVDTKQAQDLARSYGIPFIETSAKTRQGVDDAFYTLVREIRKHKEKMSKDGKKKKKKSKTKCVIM
Chain of K-Ras G12C(GMP-PNP) binding to BRAF RBD (P62937 whole entry): as the sequence (P62937 whole entry) above
Chain of KRAS G12V (P01116 other isoform, or with tags, fused parts or gaps G12V): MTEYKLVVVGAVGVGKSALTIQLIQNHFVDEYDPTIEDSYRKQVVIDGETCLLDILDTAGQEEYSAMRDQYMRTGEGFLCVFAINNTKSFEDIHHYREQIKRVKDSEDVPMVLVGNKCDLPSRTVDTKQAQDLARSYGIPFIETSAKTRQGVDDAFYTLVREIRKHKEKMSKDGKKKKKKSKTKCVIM
Chain of KRAS G12V (P62937 whole entry): as the sequence (P62937 whole entry) above
Chain of KRAS G13D (P01116 other isoform, or with tags, fused parts or gaps G13D): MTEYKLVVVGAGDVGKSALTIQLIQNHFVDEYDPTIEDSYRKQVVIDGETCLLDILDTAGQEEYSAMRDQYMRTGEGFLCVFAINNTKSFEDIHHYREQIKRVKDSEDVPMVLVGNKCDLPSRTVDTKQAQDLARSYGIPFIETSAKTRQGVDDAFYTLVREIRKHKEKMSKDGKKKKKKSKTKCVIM
Chain of KRAS G13D (P62937 whole entry): as the sequence (P62937 whole entry) above

IC50 [1] | IC50 [3] | IC50 ([4]; read-out: KRAS G12C FRET IC50) | EC50 [5] | IC50 [6] | IC50 [7] | IC50 [8] | IC50 [9] | IC50 [10] | IC50 [11] | IC50 [12] | IC50 [13] | SMILES | IC50 [2] | IC50 ([4]; KRAS G12C FRET IC50)
< 0.01 µM | 0.01 to 0.1 µM | 0.01 to 0.1 µM | < 5 µM |  |  |  |  |  |  |  |  | CCn1c(-c2cccnc2[C@H](C)OC)c2c3cc(ccc31)-c1cc(O)cc(c1)C[C@H](NC(=O)[C@H](C(C)C)N(C)C(=O)[C@@H]1CNC[C@@H]1C)C(=O)N1CCC[C@H](N1)C(=O)OCC(C)(C)C2 [Compound A128] | > 10 µM | 
0.1 to 1 µM | 0.01 to 0.1 µM | 0.01 to 0.1 µM |  | 0.01 to 0.1 µM | 0.01 to 0.1 µM | 0.01 to 0.1 µM | 0.01 to 0.1 µM |  |  |  |  | CCn1c(-c2cccnc2[C@H](C)OC)c2c3cc(ccc31)-c1cc(O)cc(c1)C[C@H](NC(=O)[C@H](C(C)C)N(C)C(=O)C1(CN)CC1)C(=O)N1CCC[C@H](N1)C(=O)OCC(C)(C)C2 [Compound A139] |  | 
 | 1 to 10 µM | 0.1 to 1 µM and 1 to 10 µM |  | > 10 µM | > 10 µM | 1 to 10 µM | > 10 µM | > 10 µM | 1 to 10 µM |  |  | CCn1c(-c2cccnc2[C@H](C)OC)c2c3cc(ccc31)-c1csc(n1)C[C@H](NC(=O)[C@H](C(C)C)N1CCCC1=O)C(=O)N1CCC[C@H](N1)C(=O)OCC(C)(C)C2 [Compound A212] | > 10 µM | 
 | 0.1 to 1 µM | 0.1 to 1 µM and > 10 µM |  | 0.1 to 1 µM | 1 to 10 µM | 0.01 to 0.1 µM | 0.1 to 1 µM | 0.1 to 1 µM | 0.1 to 1 µM | 0.1 to 1 µM |  | CCn1c(-c2cnccc2COC)c2c3cc(ccc31)-c1cc(O)cc(c1)C[C@H](NC(=O)[C@H](C(C)C)N(C)C(=O)[C@H]1CN(C(C)=O)C[C@H]1C(F)(F)F)C(=O)N1CCC[C@H](N1)C(=O)OCC(C)(C)C2 [Compound A215] | > 10 µM | 
 | 0.01 to 0.1 µM | 0.1 to 1 µM and 1 to 10 µM |  | 0.01 to 0.1 µM | 0.1 to 1 µM | 0.01 to 0.1 µM | 0.01 to 0.1 µM | 0.1 to 1 µM | 0.1 to 1 µM | 1 to 10 µM | 1 to 10 µM | CCn1c(-c2cnccc2COC)c2c3cc(ccc31)-c1cc(O)cc(c1)C[C@H](NC(=O)[C@H](C(C)C)N(C)C(=O)[C@H]1CNC[C@H]1C(F)(F)F)C(=O)N1CCC[C@H](N1)C(=O)OCC(C)(C)C2 [Compound A216] | 1 to 10 µM | 

SMILES | IC50 [1] | IC50 [3] | IC50 ([4]; read-out: KRAS G12C FRET IC50) | EC50 [5] | IC50 [6] | IC50 [7] | IC50 [8] | IC50 [9] | IC50 [10] | IC50 [11] | IC50 [12] | IC50 [13] | IC50 [2] | IC50 ([4]; KRAS G12C FRET IC50)
CCn1c(-c2cccnc2[C@H](C)OC)c2c3cc(ccc31)-c1csc(n1)C[C@H](NC(=O)[C@H](C(C)C)N1CCC3(CCN(S(C)(=O)=O)C3)C1=O)C(=O)N1CCC[C@H](N1)C(=O)OCC(C)(C)C2 (stereo partly shown) [Compound A220] | > 10 µM | 1 to 10 µM |  |  | 1 to 10 µM | > 10 µM | 1 to 10 µM | > 10 µM | 1 to 10 µM | 1 to 10 µM | 1 to 10 µM |  |  | 0.1 to 1 µM and 1 to 10 µM
